According to patent US12241112B2, “D-glucaric acid producing bacterium, and method for manufacturing D-glucaric acid” (Ensuiko Sugar Refining Co., Ltd., priority 2012, dated 2025):
Structures can show the parent of a compound that is named as a salt.

T1: β-glucuronidase (Homo sapiens, UniProt P08236)
T1 sequence (P08236 23-651): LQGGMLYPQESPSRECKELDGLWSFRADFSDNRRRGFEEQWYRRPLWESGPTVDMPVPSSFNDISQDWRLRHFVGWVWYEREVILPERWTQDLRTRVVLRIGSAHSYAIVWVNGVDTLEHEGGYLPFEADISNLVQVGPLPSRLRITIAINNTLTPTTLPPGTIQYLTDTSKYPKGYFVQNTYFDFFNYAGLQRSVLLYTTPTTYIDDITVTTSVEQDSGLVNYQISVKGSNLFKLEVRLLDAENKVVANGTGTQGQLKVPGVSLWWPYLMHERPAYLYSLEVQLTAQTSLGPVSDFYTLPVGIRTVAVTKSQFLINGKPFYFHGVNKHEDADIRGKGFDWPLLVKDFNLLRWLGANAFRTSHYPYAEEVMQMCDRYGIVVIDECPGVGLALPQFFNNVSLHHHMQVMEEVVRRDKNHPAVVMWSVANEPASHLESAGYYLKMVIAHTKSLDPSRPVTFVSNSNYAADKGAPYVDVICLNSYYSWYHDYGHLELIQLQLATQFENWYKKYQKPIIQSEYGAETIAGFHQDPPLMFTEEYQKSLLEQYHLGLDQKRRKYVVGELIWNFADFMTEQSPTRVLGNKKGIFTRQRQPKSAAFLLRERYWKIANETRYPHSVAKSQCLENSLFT


Key:
PQQ/Heme-ALDH (4) = assay: Substrate specificity of PQQ/Heme-ALDH (4); type: biochemical, Pseudogluconobacter saccharoketogenes; settings: McIlvaine buffer pH 8.0, relative to sodium D-gluconate set to be 100
Method: (§1) • Substrate solution: 0.2 M sodium glyoxylate solution (adjusted to pH 8.0 with sodium hydroxide) • Buffer: McIlvaine buffer (pH 8.0)
(§2) Other reagents and preparation methods thereof and measurement procedures are in accordance with the measurement of ADH (1) activity.
(§3) Each substrate (D-glucose, sodium D-gluconate, sodium D-glucuronate, intermediate A, sodium salt of intermediate B, sodium glyoxylate) was dissolved in McIlvaine buffer (pH 8.0) and the activity of ALDH was measured as described in Example 1 to study the substrate specificity of PQQ/Heme-ALDH (4). The enzyme activity for each substrate is expressed as a relative activity to the activity measured with sodium D-gluconate as a substrate that was set to be 100.

PQQ-ALDH (2) = assay: Substrate specificity of PQQ-ALDH (2); type: biochemical, Pseudogluconobacter saccharoketogenes; settings: McIlvaine buffer pH 8.0, relative to sodium salt of intermediate B set to be 100
Method: as §1, §2
Each substrate (D-glucose, sodium D-gluconate, sodium D-glucuronate, intermediate A, sodium salt of intermediate B, sodium glyoxylate) was dissolved in McIlvaine buffer (pH 8.0) and the activity of ALDH was measured as described in Example 1 to study the substrate specificity of PQQ-ALDH (2). The enzyme activity for each substrate is expressed as a relative activity to the activity measured with the sodium salt of intermediate B as a substrate that was set to be 100.

PQQ-ADH (1) = assay: Substrate specificity of PQQ-ADH (1); type: biochemical, Pseudogluconobacter saccharoketogenes; settings: McIlvaine buffer pH 5.0, relative to D-glucose set to be 100
Method: (§4) The culture solution (1 mL) was centrifuged at 10,000 rpm for 5 minutes to recover the cells. The cells were resuspended in 1 mL of 0.9% saline. The cell suspension was appropriately diluted in 0.9% saline to obtain a crude enzyme solution. In a test tube 250 μL of the buffer, 500 μL of the substrate solution and 50 μL of the crude enzyme solution were placed and preliminarily heated to 30° C. for 5 minutes.
(§5) To the mixture 200 μL of the potassium ferricyanide solution was added to initiate oxidation reaction. After 10 minutes, 500 μL of the reaction termination solution was added to terminate the reaction. The reaction solution was added with 3.5 mL of pure water, left to stand in the dark at room temperature for 20 minutes and measured for the absorbance at 660 nm. For the control, pure water was used instead of the substrate solution. In this measurement, 1 U is defined as the amount of enzyme required to oxidize 1 μM of the substrate per minute.
as §3, with “intermediate B)” for “intermediate B, sodium glyoxylate)”, “(pH 5.0)” for “(pH 8.0)”, “of ADH” for “of ALDH”, “of PQQ-ADH (1).” for “of PQQ/Heme-ALDH (4).”, “with D-glucose” for “with sodium D-gluconate”

β-glucuronidase = target: T1, β-glucuronidase; settings: background statement; cited from earlier work
ALDH (2 and 3) = assay: Measurement of activity of ALDH (2 and 3) (potassium ferricyanide method, sodium glyoxylate substrate, pH 8.0); type: biochemical, Pseudogluconobacter saccharoketogenes
Method: as §4, §5
2) Measurement of Activity of ALDH (2 and 3)
as §1, §2

ADH (1) = assay: Measurement of activity of ADH (1) (potassium ferricyanide method, glucose substrate, pH 5.0); type: biochemical, Pseudogluconobacter saccharoketogenes; settings: ADH (1) activity
Method: 1) Measurement of Activity of ADH (1)
• Substrate solution: 0.2 M glucose solution • Buffer: McIlvaine buffer (pH 5.0) • Potassium ferricyanide solution: 0.1 M potassium ferricyanide solution • Reaction termination solution: 5 g of ferric sulphate and 95 mL of phosphoric acid were dissolved in pure water and adjusted to 1 L. <Measurement Procedures>
as §4, §5

| Molecule | Relative activity (PQQ/Heme-ALDH (4); 0.2M substrate) | Relative activity (PQQ-ALDH (2); 0.2M substrate) | Relative activity (PQQ-ADH (1); 0.2M substrate) | also measured |
| --- | --- | --- | --- | --- |
| O=CC(=O)[O-].[Na+] [sodium glyoxylate, reference compound] | 20,260% | 3,050% | – | – |
| O=C[C@H](O)[C@@H](O)[C@H](O)[C@H](O)C(=O)[O-].[Na+] [sodium D-glucuronate] | 2.9% | 18.6% | <1% | – |
| O=C[C@@H](O)[C@@H](O)[C@H](O)[C@@H](O)C=O [intermediate A, D-glucaraldehyde] | – | – | – | Relative activity (PQQ/Heme-ALDH (4); 0.02M substrate): 11.6%; Relative activity (PQQ-ALDH (2); 0.02M substrate): 476%; Relative activity (PQQ-ADH (1); 0.02M substrate): 59.1% |
| O=C[C@@H](O)[C@@H](O)[C@H](O)[C@@H](O)C(=O)O [sodium salt of intermediate B, L-guluronic acid] | 21.1% | 100% | 2.7% | – |
| O=C[C@H](O)[C@@H](O)[C@H](O)[C@H](O)CO [D-glucose] | 35.1% | 11.8% | 100% | – |
| O=C([O-])[C@H](O)[C@@H](O)[C@H](O)[C@H](O)CO.[Na+] [sodium D-gluconate] | 100% | <1% | 88.6% | – |
| O=C(O)[C@@H](O)[C@@H](O)[C@H](O)[C@@H](O)C(=O)O [D-glucaric acid] | – | – | – | inhibition of β-glucuronidase (β-glucuronidase): strongly inhibit |
| PQQ-ALDH (2): specific pyrroloquinoline quinone-dependent aldehyde dehydrogenase, amino acid sequence of SEQ ID NO: 2 (protein, Pseudogluconobacter) MYRKGSVLTVSALVLGLCTSSVWAQQAPTTNALDNLTPVTSVWAQQAPTTNALDNLTPVTGWGYSPLDQINKDNVDKLQLVWSWGLSPGGTTQETPLVHDGVMFVQNSSHLIQALDAGTGELLWQYQYSLPTGVNPAGQRSKALYGDNLIFATRDAHIVAVNAKTGKLAWDQQVADYKKGWGYSSGPLVADGTIIQGMTNCGNGEPGGCFITGHDPATGKELWRLNTIASGDTPEGNSWNGLPQMSRYGASAWITGSYDPDQNIVFAGVGQPYPWPAVLNGLLPKSTDSKYTNNAAYTDSTLAIEPKTGALKWYHQYLATDTLDLDYVYERLLVDLPVKGEATKQVITAGKLAIIESLDRTSGKWLWAHETVPQNVVSAIDPVTGEKTINPDVIPQVGKTTVNCPADPGGRAWQATSFSPKTQMMYMPTVEFCSNTDVNPLDPGQVYTGGGLATFNRVPRPDSDGNIGQVRAINLADQTDAWMYRQHAPVTTSTLPTGGGLVFVGTLDRKLIAFDDTTGKILWTSPKLDNAIESFPVTFTAGDKQYVAVVTNWSSGLGRLKSITPDVQLPQDNPHTVYVFALPDTK | – | – | – | Specific activity (ALDH (2 and 3); enzyme purified from Rh47-3 strain, ALDH (2) activity): 8,928 U/mg |
| PQQ-ADH (1): specific pyrroloquinoline quinone-dependent alcohol dehydrogenase, amino acid sequence of SEQ ID NO: 1 (protein, Pseudogluconobacter) MLKQSLLASGLAALCVAAMGSLSLAAETTSERLLNAGSEAENGNWLMVHRTYDSHRFSPLSEINKDTIKDLGLASVTILDNASRGGRYASARNEGTPLVEDGFMYLQSGWSVVYKLDVRDGKTAKVVWKYDPEVDRQWVSDATCCGAENRGIGLWNDDVVALTMDGRVMSINKDTGELNWEKQRADKARAESFTGAPLIIGDTAVYGPAGGEYGIRGWLEAIDLKTGDVAWRTYTVPGPGEPGNDTWQGNAWETGGASIWQTGSYDPDTGMTYWGTGNPAPQIDAEYRPGDNLYASSLLALDAKDGALKWHFQFTPNDPYDYDEIGDNQLLDVSVDGKPSKMVVRAARNGFMYGFNRLDGAMTYAKQYVEDLTWTTGIDPKTGKPLEYDPKAQLQKYVAGTVGSREGNPGIYCPTLGGGKNWQPAAYSPNTKLLYVTSAEGCSAYVPEAAPNPTTTGGEYDVVKAQREWNGRLPAPEGTKLPDVFNGGSVKAIDPLTGETKAKVLVPRRLNGMLATGGDLVWSSGTDGNLYAYDANTLETVWTFNVGTALGGPPMSYSVDGKQYVAVLAGAAASAADKKVAPQSEFFVPADALYIFALK | – | – | – | Specific activity (ADH (1); enzyme purified from K591s strain): 36.0 U/mg; Specific activity (ADH (1); enzyme purified from Rh47-3 strain): 38.6 U/mg |
| PQQ/Heme-ALDH (4): ALDH (3) enzyme with the highest activity, contains PQQ and Heme c, SEQ ID NO: 3 (protein, PQQ and heme c cofactors; Pseudogluconobacter) MTIRLKTLLAFTAITTLALPAFAQDAAAPAAPAARTYKPVTNDMILNPPAEEWISWRRTVDNQGYSPLDLINKDIVKNLELAWAWPMAADGQQEAAPLVHDGIMFLSTNQNIIQALDAKTGDLIWEYRHVLPELPTSWGYQLNQARRQKNSIALYDDKVIVATADAKLVALDAATGKVAWETQVYDTQKGYSYTVGPLIVGDTAVYGPAGGEYGIRGWLEFIAAHDAKTGKEIWRFNTIDDPKNPEQEASWNGVPPENRWGGTPWTTGSYDPRTNTTFWGVGMPGPYSQLIRGSGEGPVLYTNNTLALDADTGERKWNFSHLPADNWDLDSPFERILVDEGQGDAAKHLLVTVPGKDGIAFGLDRDTGKYLWSRDTVYQNVVKNIDAEGKVTLNSDLVPTAVNQEVFVCTSVSGGKLWMTGAYSPKTQTYYVPLAEACNTVTPTVTEFTAGNAVGATKFGPRVLPPNITNGGVVEAINVADGARKWRLEQRPTFSSSLLAKAKVLVPRRLNGMLATGGDLETGQVVWKTRLNAPIGGYPMTYEIDGEQYLAVPTGFSAQASSSASMFPEIPVPSGSGNSLFVFKLRNDTQTASK | – | – | – | Specific activity (ALDH (2 and 3); enzyme purified from K591s strain, ALDH (3) activity): 27,661 U/mg |
